From patent US6150385A, “1,3,4-thiadiazoles useful for the treatment of CMV infections” (Pharmacia & Upjohn Company, priority 1999, dated 2000) come the findings set out here.

For this assay, the target named is T1, HCMV polymerase (Human cytomegalovirus, UniProt P08546).
T1 construct: made in house; host or cells: SF-9 insect cells infected with recombinant baculovirus
T1 sequence (P08546 whole entry): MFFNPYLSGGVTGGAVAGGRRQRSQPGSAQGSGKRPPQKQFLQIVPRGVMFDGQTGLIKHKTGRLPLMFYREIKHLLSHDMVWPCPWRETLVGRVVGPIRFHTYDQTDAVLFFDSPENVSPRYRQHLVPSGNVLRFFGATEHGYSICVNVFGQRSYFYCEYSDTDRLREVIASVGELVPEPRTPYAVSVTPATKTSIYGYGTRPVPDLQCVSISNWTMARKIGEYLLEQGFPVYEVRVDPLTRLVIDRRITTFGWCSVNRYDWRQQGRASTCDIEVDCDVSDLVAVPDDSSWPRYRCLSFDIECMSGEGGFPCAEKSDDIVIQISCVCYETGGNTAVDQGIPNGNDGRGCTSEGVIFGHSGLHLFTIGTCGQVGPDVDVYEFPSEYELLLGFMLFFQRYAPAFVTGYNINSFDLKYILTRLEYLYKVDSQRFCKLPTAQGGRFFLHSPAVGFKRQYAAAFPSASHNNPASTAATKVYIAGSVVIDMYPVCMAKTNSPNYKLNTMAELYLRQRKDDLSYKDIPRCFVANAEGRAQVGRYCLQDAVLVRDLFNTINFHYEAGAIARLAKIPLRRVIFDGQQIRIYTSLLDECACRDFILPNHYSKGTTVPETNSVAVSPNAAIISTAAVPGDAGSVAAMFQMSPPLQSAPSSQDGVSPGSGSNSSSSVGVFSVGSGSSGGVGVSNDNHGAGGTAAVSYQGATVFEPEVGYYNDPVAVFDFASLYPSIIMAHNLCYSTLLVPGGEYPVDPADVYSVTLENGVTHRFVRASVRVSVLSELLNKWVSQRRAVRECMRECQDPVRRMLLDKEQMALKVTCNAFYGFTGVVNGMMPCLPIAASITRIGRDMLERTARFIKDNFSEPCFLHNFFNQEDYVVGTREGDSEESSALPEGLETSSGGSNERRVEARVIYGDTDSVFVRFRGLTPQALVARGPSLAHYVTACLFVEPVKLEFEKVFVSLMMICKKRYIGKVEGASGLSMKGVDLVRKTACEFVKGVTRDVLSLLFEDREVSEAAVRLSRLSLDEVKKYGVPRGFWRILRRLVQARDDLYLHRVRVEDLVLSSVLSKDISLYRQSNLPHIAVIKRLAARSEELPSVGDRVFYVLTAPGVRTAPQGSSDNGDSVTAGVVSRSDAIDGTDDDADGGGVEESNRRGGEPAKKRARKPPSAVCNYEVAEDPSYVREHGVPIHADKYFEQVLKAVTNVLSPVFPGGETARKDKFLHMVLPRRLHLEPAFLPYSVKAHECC
The experiment in a line: HCMV polymerase assay (scintillation proximity assay). The format is biochemical. The settings on record: percentage of inhibition at 25 μM concentration in CMV polymerase assay. The essentials:
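Baculovirus/SF-9-expressed HCMV polymerase in 5.4 mM HEPES pH 7.5, 11.7 mM KCl, 4.5 mM MgCl2, 0.36 mg/ml BSA, 90 nM 3H-dTTP, with or without 2 mM CHAPS. Started with 6 nM biotinylated poly(dA)-oligo(dT), 30 min at 25 or 37 °C, EDTA-stopped, read by streptavidin-SPA counting; % inhibition at 25 μM.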
The compound `O=C(Nc1nnc(NCCC(c2ccccc2)c2ccccc2)s1)c1cc2ccccc2s1` [compound 277, N-{5-[(3,3-diphenylpropyl)amino]-1,3,4-thiadiazol-2-yl}-1-benzothiophene-2-carboxamide] came in with an inhibition at 25 µM of 37.9%.
Regarding `O=C(Nc1nnc(NC2CCCCCC2)s1)c1ccc(S(=O)(=O)F)cc1` [compound 278, 4-({[5-(cycloheptylamino)-1,3,4-thiadiazol-2-yl]amino}carbonyl)benzenesulfonyl fluoride], the “% Inhib” value was found to be 37.5%.
Turning to `CCCCCCCC/C=C/CCCCCCCC(=O)Nc1nnc(NC2CCc3ccccc32)s1` (centres unmarked) [compound 279, (E)-N-[5-(2,3-dihydro-1H-inden-1-ylamino)-1,3,4-thiadiazol-2-yl]-9-octadecenamide], the inhibition at 25 µM was 37.4%.
`COc1ccc(CNc2nnc(NC(=O)c3c(Cl)cccc3Cl)s2)cc1OC` [compound 280, 2,6-dichloro-N-{5-[(3,4-dimethoxybenzyl)amino]-1,3,4-thiadiazol-2-yl}benzamide] showed an inhibition at 25 µM of 37.3%.
In turn, `O=C(Nc1nnc(NCCC(c2ccccc2)c2ccccc2)s1)c1cc(F)cc(F)c1` [compound 281, N-{5-[(3,3-diphenylpropyl)amino]-1,3,4-thiadiazol-2-yl}-3,5-difluorobenzamide] showed an inhibition at 25 µM of 37.3%.
With `O=C(Nc1nnc(NCCc2ccccc2)s1)c1ccc([N+](=O)[O-])o1` [compound 282, 5-nitro-N-[5-(phenethylamino)-1,3,4-thiadiazol-2-yl]-2-furamide], 25 µM produced 37.1% inhibition.
Turning to `CCCCC(CC)CNc1nnc(NC(=O)c2c(Cl)cccc2Cl)s1` (centres unmarked) [compound 283, 2,6-dichloro-N-{5-[(2-ethylhexyl)amino]-1,3,4-thiadiazol-2-yl}benzamide], testing at 25 µM gave an inhibition of 37%.
For the compound `O=C(Nc1nnc(NCCc2c[nH]c3ccccc23)s1)c1ccc(C(F)(F)F)cc1` [compound 284, N-(5-{[2-(1H-indol-3-yl)ethyl]amino}-1,3,4-thiadiazol-2-yl)-4-(trifluoromethyl)benzamide], at 25 µM the inhibition was 36.7%.
The same measure, in the same setting: the value for `CCCCCCCC/C=C/CCCCCCCC(=O)Nc1nnc(NCC2CCCCC2)s1` [compound 285, (E)-N-{5-[(cyclohexylmethyl)amino]-1,3,4-thiadiazol-2-yl}-9-octadecenamide] was 36.7%; that for `CCCCCCCC/C=C/CCCCCCCC(=O)Nc1nnc(NCC(CC)CCCC)s1` (centres unmarked) [compound 286, (E)-N-{5-[(2-ethylhexyl)amino]-1,3,4-thiadiazol-2-yl}-9-octadecenamide] was 36.3%.
The compound `O=C(Nc1nnc(NC2CC2)s1)c1cc2ccccc2s1` [compound 287, N-[5-(cyclopropylamino)-1,3,4-thiadiazol-2-yl]-1-benzothiophene-2-carboxamide] had an inhibition at 25 µM of 36.2%.
`O=C(Nc1nnc(NC2CCCCCC2)s1)c1ccc(I)cc1` [compound 288, N-[5-(cycloheptylamino)-1,3,4-thiadiazol-2-yl]-4-iodobenzamide] had an inhibition at 25 µM of 36.2%.
With `O=C(Nc1nnc(NCc2ccncc2)s1)c1ccc(I)cc1` [compound 289, 4-iodo-N-{5-[(4-pyridinylmethyl)amino]-1,3,4-thiadiazol-2-yl}benzamide], testing at 25 µM gave an inhibition of 36%.
Compound `O=C(/C=C/c1ccccc1)Nc1nnc(NC2CCN(Cc3ccccc3)CC2)s1` [compound 290, (E)-N-{5-[(1-benzyl-4-piperidinyl)amino]-1,3,4-thiadiazol-2-yl}-3-phenyl-2-propenamide] yielded an inhibition at 25 µM of 35.9%.
With `O=C(Nc1nnc(NCCNc2ccccc2)s1)c1cccc([N+](=O)[O-])c1` [compound 291, N-{5-[(2-anilinoethyl)amino]-1,3,4-thiadiazol-2-yl}-3-nitrobenzamide], 25 µM produced 35.7% inhibition.
As to `CCSCCNc1nnc(NC(=O)c2c(Cl)cccc2Cl)s1` [compound 292, 2,6-dichloro-N-(5-{[2-(ethylsulfanyl)ethyl]amino}-1,3,4-thiadiazol-2-yl)benzamide], the inhibition at 25 µM is 35.6%.
Take `CCOc1ccc2ccccc2c1C(=O)Nc1nnc(NCCC(=O)OC(C)(C)C)s1` [compound 293, tert-butyl 3-[(5-{[(2-ethoxy-1-naphthyl)carbonyl]amino}-1,3,4-thiadiazol-2-yl)amino]propanoate]: 25 µM produced 35.5% inhibition.
Compound `O=C(/C=C/c1ccccc1Cl)Nc1nnc(NCCNc2ccccc2)s1` [compound 294, (E)-N-{5-[(2-anilinoethyl)amino]-1,3,4-thiadiazol-2-yl}-3-(2-chlorophenyl)-2-propenamide] showed an inhibition at 25 µM of 35.4%.
With `O=C(Nc1nnc(NCCc2c[nH]c3ccccc23)s1)c1ccc(Cl)c(Cl)c1` [compound 295, 3,4-dichloro-N-(5-{[2-(1H-indol-3-yl)ethyl]amino}-1,3,4-thiadiazol-2-yl)benzamide], the inhibition at 25 µM worked out at 35.4%.
As for `O=C(Nc1nnc(NCCCN2CCCC2=O)s1)c1ccc([N+](=O)[O-])o1` [compound 296, 5-nitro-N-(5-{[3-(2-oxo-1-pyrrolidinyl)propyl]amino}-1,3,4-thiadiazol-2-yl)-2-furamide], at 25 µM the inhibition was 35.1%.
The compound `O=C(Nc1nnc(NCCC(c2ccccc2)c2ccccc2)s1)c1ccc(I)cc1` [compound 297, N-{5-[(3,3-diphenylpropyl)amino]-1,3,4-thiadiazol-2-yl}-4-iodobenzamide] yielded an inhibition at 25 µM of 35%.
On the same count and under the same terms, the value for `O=C(Nc1nnc(NCCC(c2ccccc2)c2ccccc2)s1)c1ccc([N+](=O)[O-])o1` [compound 298, N-{5-[(3,3-diphenylpropyl)amino]-1,3,4-thiadiazol-2-yl}-5-nitro-2-furamide] was 35%; that for `CC(C)c1cc(C(C)C)c(C(=O)Nc2nnc(NCCC(c3ccccc3)c3ccccc3)s2)c(C(C)C)c1` [compound 299, N-{5-[(3,3-diphenylpropyl)amino]-1,3,4-thiadiazol-2-yl}-2,4,6-triisopropylbenzamide] was 34.9%; that for `O=C(Nc1nnc(NC2CCCCCC2)s1)c1cc(F)cc(F)c1` [compound 300, N-[5-(cycloheptylamino)-1,3,4-thiadiazol-2-yl]-3,5-difluorobenzamide] was 34.9%.
Still for that read-out and setting: the value for `O=C(Nc1nnc(NCc2cccnc2)s1)c1cc2ccccc2s1` [compound 301, N-{5-[(3-pyridinylmethyl)amino]-1,3,4-thiadiazol-2-yl}-1-benzothiophene-2-carboxamide] was 34.8%; that for `O=C(Nc1nnc(NCc2ccc(F)cc2)s1)c1cccc([N+](=O)[O-])c1` [compound 302, N-{5-[(4-fluorobenzyl)amino]-1,3,4-thiadiazol-2-yl}-3-nitrobenzamide] was 34.8%; that for `COc1ccccc1C(=O)Nc1nnc(NCCc2c[nH]c3ccccc23)s1` [compound 303, N-(5-{[2-(1H-indol-3-yl)ethyl]amino}-1,3,4-thiadiazol-2-yl)-2-methoxybenzamide] was 34.7%.
As to `COc1ccccc1C(=O)Nc1nnc(NCC2CCCCC2)s1` [compound 304, N-{5-[(cyclohexylmethyl)amino]-1,3,4-thiadiazol-2-yl}-2-methoxybenzamide], the inhibition at 25 µM turned out to be 34.6%.
For the compound `O=C(Nc1nnc(NCc2ccc3c(c2)OCO3)s1)c1ccc(F)cc1F` [compound 305, N-{5-[(1,3-benzodioxol-5-ylmethyl)amino]-1,3,4-thiadiazol-2-yl}-2,4-difluorobenzamide], the inhibition at 25 µM worked out at 34.5%.
On the same count and under the same terms, the value for `O=C(Nc1nnc(NCC(c2ccccc2)c2ccccc2)s1)c1ccc([N+](=O)[O-])o1` [compound 306, N-{5-[(2,2-diphenylethyl)amino]-1,3,4-thiadiazol-2-yl}-5-nitro-2-furamide] was 34.4%; that for `CC1(C)C2CC[C@@H](CNc3nnc(NC(=O)c4ccc(C#N)cc4)s3)C1C2` (stereo partly drawn) [compound 307, 4-cyano-N-[5-({[(2R)-6,6-dimethylbicyclo[3.1.1]hept-2-yl]methyl}amino)-1,3,4-thiadiazol-2-yl]benzamide] was 34.2%.
On the same count and under the same terms, the value for `O=C(Nc1nnc(NCCc2ccccc2)s1)c1ccc(Cl)cc1Cl` [compound 308, 2,4-dichloro-N-[5-(phenethylamino)-1,3,4-thiadiazol-2-yl]benzamide] was 34.2%; that for `CCSCCNc1nnc(NC(=O)c2ccc(Br)cc2)s1` [compound 309, 4-bromo-N-(5-{[2-(ethylsulfanyl)ethyl]amino}-1,3,4-thiadiazol-2-yl)benzamide] was 34%; that for `COc1ccccc1C(=O)Nc1nnc(NC2CCCCCC2)s1` [compound 310, N-[5-(cycloheptylamino)-1,3,4-thiadiazol-2-yl]-2-methoxybenzamide] was 34%.
The compound `NS(=O)(=O)c1ccc(CNc2nnc(NC(=O)c3ccc(Cl)c(Cl)c3)s2)cc1` [compound 311, N-(5-{[4-(aminosulfonyl)benzyl]amino}-1,3,4-thiadiazol-2-yl)-3,4-dichlorobenzamide] gave an inhibition at 25 µM of 33.9%.
The same measure, in the same setting: the value for `CC1(C)C2CC[C@@H](CNc3nnc(NC(=O)CCCCCl)s3)C1C2` (stereo partly drawn) [compound 312, 5-chloro-N-[5-({[(2R)-6,6-dimethylbicyclo[3.1.1]hept-2-yl]methyl}amino)-1,3,4-thiadiazol-2-yl]pentanamide] was 33.9%; that for `CCCCCCCC/C=C/CCCCCCCC(=O)Nc1nnc(NCc2ccc(Cl)c(Cl)c2)s1` [compound 313, (E)-N-{5-[(3,4-dichlorobenzyl)amino]-1,3,4-thiadiazol-2-yl}-9-octadecenamide] was 33.9%; that for `CCOc1ccc2ccccc2c1C(=O)Nc1nnc(NC2CCC2)s1` [compound 314, N-[5-(cyclobutylamino)-1,3,4-thiadiazol-2-yl]-2-ethoxy-1-naphthamide] was 33.8%.

As usually defined, the inhibition is the drop in the measured response relative to a control, in per cent.
